Experimental findings from publication PMC7768359, “Synthesis of Platinum(II) Complexes with Some 1-Methylnitropyrazoles and In Vitro Research on Their Cytotoxic Activity” (Pharmaceuticals, 2020) are described below.

The test system of data set [1] is BALB/3T3 (murine embryonic fibroblast). In words: In vitro cytotoxicity, sulforhodamine B assay, normal cells. Format: cell-based. The note with it: for IC50: BALB/3T3 normal cells, normoxia, 72 h. The method, then:
(§1) Determination of the cytotoxic activity of compounds tested was performed separately in the normoxia or hypoxia conditions to reveal their potentially bioreductive properties. The experiment was carried out on three human cancer cell lines: MCF-7 breast, ES-2 ovarian and A549 lung adenocarcinoma as well as normal murine embryonic fibroblast BALB/3T3 cell line. In order to facilitate the preparation of solutions of the tested compounds, their initial solutions for dilution were made by dissolving the compounds in acetone.
All cell lines were exposed to each compound tested at four different concentrations for 72 h. […] Additionally, all cell lines were exposed to acetone (Avantor Performance Materials, Gliwice, Poland) (the solvent used for tested compounds) at concentrations corresponding to those present in tested compounds’ dilutions.
After 72 h of cell incubation with the compounds tested, the sulforhodamine B (SRB) assay was performed as described by Shekan et al. with minor modifications. The cells were fixed in situ by adding 50 µL per well of cold 50% trichloroacetic acid (Avantor Performance Materials, Gliwice, Poland) and were incubated at 4 °C for one hour. Following that, wells were washed five times with water and air dried. Next, 50 µL of 0.4% solution of sulforhodamine B (Sigma-Aldrich, Steinheim, Germany) in 1% acetic acid (Avantor Performance Materials, Gliwice, Poland) were added to each well and plates were incubated at room temperature for 0.5 h. After incubation time, the unbound dye was removed by washing plates five times with 1% acetic acid, whereas stains bound to cells was solubilized with 10 mM Tris base (Sigma-Aldrich, Steinheim, Germany). The absorbance of each solution was read by the Multiskan RC photometer (Labsystems Diagnostics Oy, Vantaa, Finland) at a 540 nm wavelength. […] IC50 values were calculated for each experiment on the basis of four different concentrations using Cheburator software, as described by Nevozhay. The tested compounds at each concentration were tested in triplicates in a single experiment and each experiment was repeated at least three times independently.
(In general: In SRB staining, fixed cells bind dye roughly in proportion to their protein.)

Data set [2] has as its system MCF-7 (breast adenocarcinoma). The data set is described as follows: In vitro cytotoxicity, sulforhodamine B assay. Format: cell-based, human. The note with it: for growth inhibition stronger than reference cisplatin (factor): MCF-7. The method, then: as §1, with “acetone. For this purpose, it was not possible to use more polar aprotic solvents (DMSO, DMF) due to the rapid isomerization of some of the tested complexes under their influence.” for “acetone.”
(§2) All the cell lines were cultured at 37 °C in a humid atmosphere containing 5% CO2. Additionally, in the case of cytotoxicity assay with hypoxic conditions, the cells (MCF-7, ES-2, A549) were maintained at 37 °C in a humid atmosphere containing 5% CO2 and 1% O2 during the entire experiment.
(§3) Twenty-four hours before adding the tested compounds, all cell lines were seeded in 96-well plates ([…] AG & Co, Nümbrecht Germany) in an appropriate media with 10^4 cells per well. All cell lines were exposed to each compound tested at four different concentrations for 72 h. […] Additionally, all cell lines were exposed to acetone (Avantor Performance Materials, Gliwice, Poland) (the solvent used for tested compounds) at concentrations corresponding to those present in tested compounds’ dilutions.
(§4) After 72 h of cell incubation with the compounds tested, the sulforhodamine B (SRB) assay was performed as described by Shekan et al. with minor modifications. The cells were fixed in situ by adding 50 µL per well of cold 50% trichloroacetic acid (Avantor Performance Materials, Gliwice, Poland) and were incubated at 4 °C for one hour. Following that, wells were washed five times with water and air dried. Next, 50 µL of 0.4% solution of sulforhodamine B (Sigma-Aldrich, Steinheim, Germany) in 1% acetic acid (Avantor Performance Materials, Gliwice, Poland) were added to each well and plates were incubated at room temperature for 0.5 h. After incubation time, the unbound dye was removed by washing plates five times with 1% acetic acid, whereas stains bound to cells was solubilized with 10 mM Tris base (Sigma-Aldrich, Steinheim, Germany). The absorbance of each solution was read by the Multiskan RC photometer (Labsystems Diagnostics Oy, Vantaa, Finland) at a 540 nm wavelength. Results are presented as mean IC50 (concentration of the compound tested that inhibits cell proliferation by 50%) ± standard deviation. IC50 values were calculated for each experiment on the basis of four different concentrations using Cheburator software, as described by Nevozhay. The tested compounds at each concentration were tested in triplicates in a single experiment and each experiment was repeated at least three times independently.

In data set [3] the test system is A549 (lung adenocarcinoma). In words: In vitro cytotoxicity, sulforhodamine B assay. The note with it: for IC50 ± SD / IC50: 72 h. Format: cell-based, human. The method, then: as §1, with “acetone. For this purpose, it was not possible to use more polar aprotic solvents (DMSO, DMF) due to the rapid isomerization of some of the tested complexes under their influence.” for “acetone.”
as §2, §3, §4

The test system of data set [4] is ES-2 (ovarian adenocarcinoma). The data set is described as follows: In vitro cytotoxicity, sulforhodamine B assay. Format: cell-based, human. The note with it: 72 h. The method, then: as §1, with “acetone. For this purpose, it was not possible to use more polar aprotic solvents (DMSO, DMF) due to the rapid isomerization of some of the tested complexes under their influence.” for “acetone.”
as §2, §3, §4

The nature of data set [5]: logP by shake-flask method (n-octanol / 0.9% NaCl, Pt by ICP-OES). In kind it is physicochemical. The note with it: octanol/water, n = 4. The method, then: An important factor for the pharmacokinetics and the cellular accumulation of the investigated complexes, their lipophilicity was determined by measuring octanol/water partition coefficients (logP) with the shake-flask method. The logP determination was carried out based on a previously described procedure, modified by us to obtain more accurate and repeatable results.
Weighted amounts of the tested platinum complex were suspended by 10 min sonification in 0.9% NaCl water solution, which was previously saturated with n-octanol, and mixed by shaking for 1 h. A simultaneously similar procedure was performed using 5 mL of n-octanol pre-saturated with 0.9% NaCl. Afterward, both suspensions were mixed together, shaken for an additional 1 h, and centrifuged for 5 min. After phase separation and evaporation in vacuo of 1 mL of sample to dryness, the final concentration of Pt was determined by ICP-OES (λ = 265.945 nm) and the partition coefficients were calculated. For the analysis, all samples were dissolved 1:1000 in 2.5% HCl. Each measurement was repeated four times and the final logP was calculated as the arithmetic mean of the four values.

SMILES strings stand for the structures.

In the case of `Cn1cc([N+](=O)[O-])c[n+]1[Pt@SP2-2]([Cl])([Cl])[n+]1cc([N+](=O)[O-])cn1C` [Compound 1, cis-dichloridobis(1-methyl-4-nitropyrazole)platinum(II)], the IC50 in data set [1] was > 100 µM; in data set [2] (MCF-7, normoxia, 72 h) it was 74.7 ± 36.1 µM; in data set [3] (A549, normoxia), 103 ± 28.8 µM; in data set [4] (ES-2, hypoxia (1% O2)), 109 ± 22.6 µM; in data set [4] (ES-2, normoxia), 29.4 ± 24.9 µM. Moreover, the “IC50 ± SD” value was “inactive” in data set [2] (MCF-7, hypoxia (1% O2), 72 h) and “inactive” in data set [3] (A549, hypoxia (1% O2)). Moreover, the “logP ± SD” value in data set [5] was −0.35 ± 0.04.
On to `Cn1cc([N+](=O)[O-])c[n+]1[Pt@SP3-2]([Cl])([Cl])[n+]1cc([N+](=O)[O-])cn1C` [Compound 2, trans-dichloridobis(1-methyl-4-nitropyrazole)platinum(II)], for which the IC50 was determined as 8.19 ± 2.9 µM in data set [1]; 11.1 ± 5.6 µM in data set [2] (MCF-7, hypoxia (1% O2), 72 h); 1.8 ± 0.9 µM in data set [2] (MCF-7, normoxia, 72 h); 7.7 ± 7.4 µM in data set [3] (A549, hypoxia (1% O2)); 3.7 ± 2.9 µM in data set [3] (A549, normoxia); 1.1 ± 0.3 µM in data set [4] (ES-2, hypoxia (1% O2)). The compound also registered an IC50 in data set [4] (ES-2, normoxia) of 0.7 ± 0.7 µM. Moreover, in data set [1] (BALB/3T3 vs MCF-7, ES-2, A549, range), the “selectivity index (SI; ratio of cytotoxic concentration for healthy cells to that for cancer cells)” value was 2.2–11.7. In addition, in data set [2], the “growth inhibition stronger than reference cisplatin (factor)” value was “about seven times”. The “effect stronger than reference cisplatin (times)” value in data set [3] (A549) was 2.6 times. Further, in data set [5], the “logP ± SD” value is given as 1.43 ± 0.16,.
Regarding `Cn1c([N+](=O)[O-])cc[n+]1[Pt@SP2-2]([Cl])([Cl])[n+]1ccc([N+](=O)[O-])n1C` [Compound 3, cis-dichloridobis(1-methyl-5-nitropyrazole)platinum(II)], the IC50 in data set [1] was > 100 µM; in data set [2] (MCF-7, hypoxia (1% O2), 72 h), 41.5 ± 39.9 µM; in data set [2] (MCF-7, normoxia, 72 h) it was 10.1 ± 1.4 µM; in data set [3] (A549, normoxia) it was 53.4 ± 10 µM; in data set [4] (ES-2, hypoxia (1% O2)), 51.9 ± 16.7 µM; in data set [4] (ES-2, normoxia), 75.4 ± 12.3 µM. For the same compound, in data set [3] (A549, hypoxia (1% O2)), the “IC50 ± SD” value was “inactive”. For the same compound, the “logP ± SD” value in data set [5] is given as −0.31 ± 0.04.
On to `Cn1c([N+](=O)[O-])cc[n+]1[Pt@SP3-2]([Cl])([Cl])[n+]1ccc([N+](=O)[O-])n1C` [Compound 4, trans-dichloridobis(1-methyl-5-nitropyrazole)platinum(II)], for which the IC50 in data set [1] turned out to be 74.4 ± 23.2 µM; in data set [2] (MCF-7, hypoxia (1% O2), 72 h) it was 32 ± 9.2 µM; in data set [2] (MCF-7, normoxia, 72 h), 7.8 ± 1.3 µM; in data set [3] (A549, normoxia), 31 ± 9.5 µM; in data set [4] (ES-2, hypoxia (1% O2)), 32.3 ± 27 µM; in data set [4] (ES-2, normoxia) it was 41.1 ± 7.1 µM. Besides, the “growth inhibition stronger than reference cisplatin (factor)” value in data set [2] is given as “almost two times”. Moreover, the “IC50 ± SD” value in data set [3] (A549, hypoxia (1% O2)) is “inactive”. Moreover, in data set [5], the “logP ± SD” value turned out to be 0.46 ± 0.00.

In general, IC50 refers to the concentration at which inhibition is half-maximal. Read a high IC50 as weaker potency in that assay.
